Results from ChEMBL document CHEMBL1795228, “Air to lung partition coefficients for volatile organic compounds and blood to lung partition coefficients for volatile organic compounds and drugs” (Eur J Med Chem, 2008).

Test: In-vivo blood/plasma to lung partition coefficients of the compound, logP(lung) in rat
Format: ADME, cell-free
Details: octanol/water
For `Cc1ncc2n1-c1ccc(Cl)cc1C(c1ccccc1F)=NC2` [MIDAZOLAM], the “logP(lung)” value was 0.6. For `C=CCOc1ccccc1OCC(O)CNC(C)C` (configuration not stated) [OXPRENOLOL], the “logP(lung)” value was 1.27.

Test: In-vivo blood to lung partition coefficients of the compound, logP(lung) in rat
Format: ADME
Details: not given
In the case of `Oc1ccc(O)cc1` [HYDROQUINONE], the “logP(lung)” value was -0.16. In the case of `OCCOCCN1CCN(C(c2ccccc2)c2ccc(Cl)cc2)CC1` (configuration not stated) [HYDROXYZINE], the “logP(lung)” value was 1.06. For `COCCc1ccc(OCC(O)CNC(C)C)cc1` (configuration not stated) [METOPROLOL], the “logP(lung)” value was 1.06. For `O=C1CN=C(c2ccccc2)c2cc([N+](=O)[O-])ccc2N1` [NITRAZEPAM], the “logP(lung)” value was 0.26. With `CC(=O)Nc1ccc(OCC(O)CNC(C)C)cc1` (configuration not stated) [PRACTOLOL] the “logP(lung)” value was 0.48. For `CN1CCN(CCCN2c3ccccc3Sc3ccc(C(F)(F)F)cc32)CC1` [TRIFLUOPERAZINE], the “logP(lung)” value was 1.33. For `OC(CCN1CCCCC1)(c1ccccc1)C1CCCCC1` (configuration not stated) [TRIHEXYPHENIDYL], the “logP(lung)” value was 1.87.

Test: In-vivo serum to lung partition coefficients of the compound, logP(lung) in rat
Format: ADME
Details: octanol/water
In the case of `COC(=O)Nc1nc2cc(C(=O)N3CCN(c4ccccn4)CC3)ccc2[nH]1`, the “logP(lung)” value was -0.29. With `CC[C@H]1OC(=O)[C@H](C)[C@@H](O[C@H]2C[C@@](C)(OC)[C@@H](O)[C@H](C)O2)[C@H](C)[C@@H](O[C@@H]2O[C@H](C)C[C@H](N(C)C)[C@H]2O)[C@](C)(O)C[C@@H](C)CN(C)[C@H](C)[C@@H](O)[C@]1(C)O` [AZITHROMYCIN] the “logP(lung)” value was 2.08. For `CC[C@H]1OC(=O)[C@H](C)[C@@H](O[C@H]2C[C@@](C)(OC)[C@@H](O)[C@H](C)O2)[C@H](C)[C@@H](O[C@@H]2O[C@H](C)C[C@H](N(C)C)[C@H]2O)[C@](C)(O)C[C@@H](C)C(=O)[C@H](C)[C@@H](O)[C@]1(C)O` [ERYTHROMYCIN], the “logP(lung)” value was 1.62.
